Reference: PubChem BioAssay AID1745844 (Carcinogenic Potency Database (CPDB), 2022)
The source made the active and inactive calls. The rule behind the calls is not given here.

Tested on: rodent lifetime carcinogenesis bioassay, tumor incidence TD50
Assay: carcinogenic potency in animals, long-term in vivo studies, CPDB compilation (AID 1745844)

Structure (SMILES): CCCCCN(N=O)C(=N)N[N+](=O)[O-]
- carcinogen call (rat, strain Wistar, males, in drinking water, site: stomach, glandular, lesion: one or several types, types not named, dosed 52 weeks, study length 78 weeks): negative (inactive)

Structure (SMILES): CCOC(=O)C1OC1(C)c1ccccc1 (stereo unspecified)
- TD50 (rat, strain Wistar, females, in feed, site: any site (literature study), lesion: benign tumor, dosed 104 weeks, study length 104 weeks): 253 mg/kg/day (inactive)
- TD50 (rat, strain Wistar, females, in feed, site: any site (literature study), lesion: malignant tumor, dosed 104 weeks, study length 104 weeks): 2230 mg/kg/day (inactive)
- TD50 (rat, strain Wistar, females, in feed, site: liver, lesion: hemangioendothelioma, dosed 104 weeks, study length 104 weeks): 9360 mg/kg/day (inactive)
- TD50 (rat, strain Wistar, females, in feed, site: pituitary gland, lesion: adenoma, dosed 104 weeks, study length 104 weeks): 331 mg/kg/day (inactive)
- TD50 (rat, strain Wistar, males, in feed, site: any site (literature study), lesion: benign tumor, dosed 104 weeks, study length 104 weeks): 1150 mg/kg/day (inactive)
- TD50 (rat, strain Wistar, males, in feed, site: any site (literature study), lesion: malignant tumor, dosed 104 weeks, study length 104 weeks): 4110 mg/kg/day (inactive)
- carcinogen call (rat, strain Wistar, males, in feed, site: liver, lesion: one or several types, types not named, dosed 104 weeks, study length 104 weeks): negative (inactive)
- TD50 (rat, strain Wistar, males, in feed, site: testis, lesion: interstitial-cell tumor, dosed 104 weeks, study length 104 weeks): 1150 mg/kg/day (inactive)

Structure (SMILES): O=C(Nc1ccc2c(c1)Cc1ccccc1-2)C(F)(F)F
- TD50 (rat, strain Buffalo, females, in feed, site: ear duct, lesion: squamous-cell carcinoma, dosed 53 weeks, study length 54 weeks): 4.94 mg/kg/day
- TD50 (rat, strain Buffalo, females, in feed, site: liver, lesion: hepatoma, dosed 53 weeks, study length 54 weeks): 1.9 mg/kg/day
- TD50 (rat, strain Buffalo, females, in feed, site: mammary gland, lesion: adenocarcinoma, dosed 53 weeks, study length 54 weeks): 1.62 mg/kg/day

Structure (SMILES): S=[Se]
- TD50 (mouse, strain B6C3F1, females, by gavage, site: any site (literature study), lesion: several types, types named in the paper, dosed 103 weeks, study length 104 weeks): 69.7 mg/kg/day
- TD50 (mouse, strain B6C3F1, females, by gavage, site: liver + lung, lesion: hepatocellular adenoma + hepatocellular carcinoma + alveolar/bronchiolar adenoma + alveolar/bronchiolar carcinoma, dosed 103 weeks, study length 104 weeks): 46.8 mg/kg/day
- TD50 (mouse, strain B6C3F1, females, by gavage, site: liver, lesion: hepatocellular adenoma + hepatocellular carcinoma + neoplastic nodule, dosed 103 weeks, study length 104 weeks): 69.3 mg/kg/day
- TD50 (mouse, strain B6C3F1, females, by gavage, site: liver, lesion: hepatocellular adenoma + hepatocellular carcinoma, dosed 103 weeks, study length 104 weeks): 69.3 mg/kg/day
- TD50 (mouse, strain B6C3F1, females, by gavage, site: liver, lesion: hepatocellular carcinoma, dosed 103 weeks, study length 104 weeks): 85.2 mg/kg/day
- TD50 (mouse, strain B6C3F1, females, by gavage, site: lung, lesion: alveolar/bronchiolar adenoma + alveolar/bronchiolar carcinoma, dosed 103 weeks, study length 104 weeks): 137 mg/kg/day
- TD50 (mouse, strain B6C3F1, females, by gavage, site: lung, lesion: alveolar/bronchiolar carcinoma, dosed 103 weeks, study length 104 weeks): 433 mg/kg/day
- TD50 (mouse, strain B6C3F1, males, by gavage, site: any site (literature study), lesion: several types, types named in the paper, dosed 103 weeks, study length 104 weeks): 735 mg/kg/day (inactive)
- TD50 (mouse, strain B6C3F1, males, by gavage, site: liver, lesion: hepatocellular adenoma + hepatocellular carcinoma + neoplastic nodule, dosed 103 weeks, study length 104 weeks): 202 mg/kg/day
- TD50 (mouse, strain B6C3F1, males, by gavage, site: lung, lesion: alveolar/bronchiolar adenoma + alveolar/bronchiolar carcinoma, dosed 103 weeks, study length 104 weeks): 183 mg/kg/day
- TD50 (rat, strain Fischer 344, females, by gavage, site: any site (literature study), lesion: several types, types named in the paper, dosed 103 weeks, study length 104 weeks): 19.3 mg/kg/day
- TD50 (rat, strain Fischer 344, females, by gavage, site: liver, lesion: hepatocellular adenoma + hepatocellular carcinoma + neoplastic nodule, dosed 103 weeks, study length 104 weeks): 6.14 mg/kg/day
- TD50 (rat, strain Fischer 344, females, by gavage, site: liver, lesion: hepatocellular carcinoma + neoplastic nodule, dosed 103 weeks, study length 104 weeks): 6.14 mg/kg/day
- TD50 (rat, strain Fischer 344, females, by gavage, site: liver, lesion: hepatocellular carcinoma, dosed 103 weeks, study length 104 weeks): 13.2 mg/kg/day
- TD50 (rat, strain Fischer 344, males, by gavage, site: any site (literature study), lesion: several types, types named in the paper, dosed 103 weeks, study length 104 weeks): 25 mg/kg/day
- TD50 (rat, strain Fischer 344, males, by gavage, site: liver, lesion: hepatocellular adenoma + hepatocellular carcinoma + neoplastic nodule, dosed 103 weeks, study length 104 weeks): 11.5 mg/kg/day
- TD50 (rat, strain Fischer 344, males, by gavage, site: liver, lesion: hepatocellular carcinoma + neoplastic nodule, dosed 103 weeks, study length 104 weeks): 11.5 mg/kg/day
- TD50 (rat, strain Fischer 344, males, by gavage, site: liver, lesion: hepatocellular carcinoma, dosed 103 weeks, study length 104 weeks): 21 mg/kg/day

Structure (SMILES): C=C(C)[C@H]1CC=C(C)C(=O)C1
- carcinogen call (mouse, strain B6C3F1, females, by gavage, site: any site (literature study), lesion: several types, types named in the paper, dosed 103 weeks, study length 105 weeks): negative (inactive)
- carcinogen call (mouse, strain B6C3F1, males, by gavage, site: any site (literature study), lesion: several types, types named in the paper, dosed 103 weeks, study length 105 weeks): negative (inactive)
- TD50 (mouse, strain B6C3F1, males, by gavage, site: liver, lesion: hepatocellular adenoma + hepatocellular carcinoma + neoplastic nodule, dosed 103 weeks, study length 105 weeks): 63800 mg/kg/day

Structure (SMILES): CC(=O)OCC(=O)[C@@]12N=C(C)O[C@@H]1C[C@H]1[C@@H]3CCC4=CC(=O)C=C[C@]4(C)[C@H]3[C@@H](O)C[C@@]12C
- TD50 (rat, strain Charles River CD (Sprague-Dawley), females, in feed, site: head, lesion: osteosarcoma, dosed 104 weeks, study length 104 weeks): 66.8 mg/kg/day
- carcinogen call (rat, strain Charles River CD (Sprague-Dawley), males, in feed, site: bone, lesion: several types, types named in the paper, dosed 104 weeks, study length 104 weeks): positive
- carcinogen call (rat, strain Charles River CD (Sprague-Dawley), males, in feed, site: head, lesion: osteosarcoma, dosed 104 weeks, study length 104 weeks): positive

Structure (SMILES): CC(/C=C/C=C(\C)C(=O)O[C@@H]1O[C@H](CO[C@@H]2O[C@H](CO)[C@@H](O)[C@H](O)[C@H]2O)[C@@H](O)[C@H](O)[C@H]1O)=C\C=C\C=C(C)\C=C\C=C(/C)C(=O)O[C@@H]1O[C@H](CO[C@@H]2O[C@H](CO)[C@@H](O)[C@H](O)[C@H]2O)[C@@H](O)[C@H](O)[C@H]1O
- carcinogen call (mouse, strain C57BL/6N, females, in drinking water, site: liver, lesion: hepatoma, dosed 95 weeks, study length 95 weeks): negative (inactive)
- carcinogen call (mouse, strain C57BL/6N, females, in drinking water, site: lung, lesion: one or several types, types not named, dosed 95 weeks, study length 95 weeks): negative (inactive)
- carcinogen call (mouse, strain C57BL/6N, males, in drinking water, site: liver, lesion: hepatoma, dosed 95 weeks, study length 95 weeks): negative (inactive)
- carcinogen call (mouse, strain C57BL/6N, males, in drinking water, site: lung, lesion: one or several types, types not named, dosed 95 weeks, study length 95 weeks): negative (inactive)

Structure (SMILES): CC(=O)O[C@]1(C(C)=O)CC[C@H]2[C@@H]3C=C(Cl)C4=CC(=O)CC[C@]4(C)[C@H]3CC[C@@]21C (tested in a mixture with another compound)
- TD50 (mouse, strain (C3H x RIII)F1 (MTV+), males, in feed, site: mammary tissue, wider than the gland, lesion: one or several types, types not named, dosed 104 weeks, study length 104 weeks): 1.76 mg/kg/day
- TD50 (mouse, strain C3H (MTV+), females, in feed, site: mammary tissue, wider than the gland, lesion: one or several types, types not named, dosed 104 weeks, study length 104 weeks): 5.98 mg/kg/day
- TD50 (mouse, strain RIII (MTV+), females, in feed, site: mammary tissue, wider than the gland, lesion: one or several types, types not named, dosed 104 weeks, study length 104 weeks): 2.12 mg/kg/day

Structure (SMILES): CN(C)CCN(Cc1cccs1)c1ccccn1
- TD50 (hamster, strain Syrian Golden, males, by gavage, site: liver, lesion: neoplastic nodule, dosed 58 weeks, study length 61 weeks): 150 mg/kg/day
- TD50 (rat, strain Fischer 344, females, in feed, site: liver, lesion: hepatocellular carcinoma, dosed 110 weeks, study length 133 weeks): 61.6 mg/kg/day
- TD50 (rat, strain Fischer 344, females, in feed, site: liver, lesion: neoplastic nodule, dosed 110 weeks, study length 133 weeks): 11.8 mg/kg/day
- TD50 (rat, strain Fischer 344, females, in feed, site: liver, lesion: several types, types named in the paper, dosed 110 weeks, study length 133 weeks): 7.65 mg/kg/day
- carcinogen call (rat, strain Fischer 344, males, in feed, site: liver, lesion: basophil adenoma, dosed 73 weeks, study length 73 weeks): positive
- TD50 (rat, strain Fischer 344, males, in feed, site: liver, lesion: cholangiocarcinoma, dosed 110 weeks, study length 133 weeks): 400 mg/kg/day
- carcinogen call (rat, strain Fischer 344, males, in feed, site: liver, lesion: eosinophilic adenoma, dosed 73 weeks, study length 73 weeks): positive
- TD50 (rat, strain Fischer 344, males, in feed, site: liver, lesion: hepatocellular carcinoma, solid, dosed 73 weeks, study length 73 weeks): 26.4 mg/kg/day
- TD50 (rat, strain Fischer 344, males, in feed, site: liver, lesion: hepatocellular carcinoma, trabecular, dosed 73 weeks, study length 73 weeks): 26.4 mg/kg/day
- TD50 (rat, strain Fischer 344, males, in feed, site: liver, lesion: hepatocellular carcinoma, dosed 73 weeks, study length 73 weeks): 14.7 mg/kg/day
- TD50 (rat, strain Fischer 344, males, in feed, site: liver, lesion: hepatocellular carcinoma, dosed 110 weeks, study length 133 weeks): 77 mg/kg/day
- TD50 (rat, strain Fischer 344, males, in feed, site: liver, lesion: neoplastic nodule, dosed 110 weeks, study length 133 weeks): 11.1 mg/kg/day
- TD50 (rat, strain Fischer 344, males, in feed, site: liver, lesion: several types, types named in the paper, dosed 110 weeks, study length 133 weeks): 7.7 mg/kg/day
